Holding throughout (type): cell-based, human
The subject of one assay is Akt. Briefly: Akt membrane recruitment (membrane isolation), U87MG cells. The note with it: overnight 5 μM JWJ. On the procedure: U87MG cells were seeded in 150 mm tissue culture plates at 2.6×10^6 cells/plate (4 plates per condition) and allowed to adhere overnight. The following day, cells were washed and media replaced with DMEM+indicated inhibitor or vehicle and cells were treated for up to 12 h. Cells were washed twice in 1×PBS then scraped in homogenization buffer (20 mM HEPES pH 7.4, 1 mM EDTA, 250 mM sucrose). Cells were pelleted by centrifugation at 1,000×g for 4 minutes at 4° C. […] Lysate was collected dropwise then centrifuged at 2,000×g for 10 min to pellet unbroken cells, nuclei, and heavy debris. The supernatant was subsequently centrifuged at 100,000×g for 60 min. The supernatant was saved as the cytosolic fraction and the 100,000×g pellet was washed once by resuspension in lysis buffer then centrifuged again under the same conditions.
2.5%, 10%, 17.5%, 25%, and 30% iodixanol solutions were prepared by mixing the appropriate ratios of 50% iodixanol with homogenization buffer. […]
In order to understand the mechanism by which PtdOH regulates Akt activation, it was first determined whether PtdOH and PIP3 share a binding site on Akt. […] Akt binding to PtdOH and PIP3 was then assessed using a protein-lipid overlay assay. […] Bound Akt was determined using an Akt specific antibody. […] GST-Akt PH domain fusion proteins were purified from E. coli and lipid binding was again assessed using a protein-lipid overlay.

The subject of the next assay is AMPK. Briefly: AMPK activation immunoblot, U87MG cells. On the procedure: Another well-known regulator of autophagy is the adenosine monophosphate-activated protein kinase (AMPK). Changes in intracellular energy balance or metabolic stress are known to activate AMPK (Hardie, D. G. (2007) Nat. Rev. Mol. Cell Bio. 8, 774-785). AMPK serves as a metabolic checkpoint, acting to restore ATP levels through regulation of metabolic enzymes and inhibition of pro-growth anabolic pathways (Hardie, D. G. (2007) Nat. Rev. Mol. Cell Bio. 8, 774-785). […] U87MG cells were treated for 24 hours with […] before lysis and immunoblotting. AMPK activation was measured by assessing phosphorylation at threonine 172 and also by measuring activation of acetyl coenzyme A carboxylase (ACC) at serine 79.
Another AMPK substrate and component of the autophagasome initiation complex is Unc-51-like kinase 1 (ULK1). Several studies (Egan, D. F. et al., (2011) Science 331, 456-461; Kim, J. et al., (2011) Nature Cell Bio. 13, 132-141) have recently identified multiple AMPK sites on ULK1 that function to enhance initiation of autophagy. […] To determine whether the induction of autophagy through AMPK activation requires Akt, Aktl was silenced and then evaluated for effects of PLD inhibition on AMPK and ULK1 phosphorylation. Aktl was chosen to silence since Aktl phosphorylation was decreased following PLD inhibition in U87MG cells. […] U87MG cells were transfected with Aktl siRNA for 72 hours prior to cell lysis. Cells were treated with […] JWJ 24 hours prior to cell lysis.
(A western blot detects proteins with antibodies after separation by electrophoresis.)

The subject of another assay is myrAktl. Briefly: Akt phosphorylation immunoblot, myrAktl U87MG cells. The note with it: overnight, serum-free DMEM; 10 μM EVJ or 5 μM JWJ. On the procedure: To confirm the observed effects on autophagy and cell death following PLD inhibition in glioma cells was due to the regulation of Akt by PLD2, a stable U87MG cell line was developed to expresses a constitutively active form of Akt under the transcriptional control of the tetracycline repressor protein (Yao, F. et al., (1998) Hum. Gene Ther. 9, 1939-1950). This Akt construct contains the myristoylation sequence from Src kinase (Kohn, A. D. et al., (1996) J. Biol. Chem. 271, 31372-31378) and is constitutively membrane associated and active. Without wishing to be bound by a particular theory, if PtdOH serves to enhance membrane docking of Akt then PLD inhibition should not decrease phosphorylation of myristoylated Akt (myrAkt) since this construct bypasses lipid recruitment signals for membrane association. […] Tetracycline inducible myrAktl-expressing U87MG cells, or parental cells, were seeded into media containing 0.1 ug/ml tetracycline and protein expression induced for approximately 24 hours. […] Cells were seeded and treated as in figure A and immunoblotted for phosphorylated and total AMPK. AMPK activation was quantitated by densitometric quantification of the phospho-AMPK band over the total AMPK band. Fold changes were calculated by normalizing the DMSO condition to 1 for each cell line. […] Referring to FIG. 23B, parental or myrAktl U87MG cells were treated with the indicated inhibitors as in 23A overnight before blotting for phosphorylated and total Akt.

[1] abbreviates: 24 hours, 10 mM EVJ or 5 mM JWJ.

Regarding `O=C(NCCN1CCC2(CC1)C(=O)NCN2c1cccc(F)c1)c1ccc2ccccc2c1` [No. 1, N-(2-(1-(3-fluorophenyl)-4-oxo-1,3,8-triazaspiro[4.5]decan-8-yl)ethyl)-2-naphthamide], the “membrane recruitment of Akt” value in the assay with Akt was “diminished”. In the assay on AMPK (setting [1]), the “AMPK activation (phosphorylation of threonine 172)” value is given as “observed to increase” and the “phosphorylation of acetyl-coA carboxylase (serine 79)” value is listed as “increased phosphorylation of acetyl-coA carboxylase”. Besides, the “AMPK or ULK1 phosphorylation when Aktl is silenced” value with AMPK (Aktl siRNA 72 hours, 5 mM JWJ 24 hours) is given as “does not appear to increase AMPK or ULK1 phosphorylation more than DMSO control”. Further, the “phosphorylated Akt in myrAktl U87MG cells” value in the assay on myrAktl is “failed to reduce levels of phosphorylated Akt”.

Source of the values: patent publication US20170319611A1, “METHODS AND COMPOSITIONS COMPRISING AKT INHIBITORS AND/OR PHOSPHOLIPASE D INHIBITORS” (Vanderbilt University, priority 2012, published 2017).
